Test results: publication PMC3481598, “Hierarchical virtual screening for the discovery of new molecular scaffolds in antibacterial hit identification” (Journal of the Royal Society Interface, 2012)
Where two headings read alike, the source gives them in different places.

Assays:
[1] = molecular target: T1, type II dehydroquinase from Streptomyces coelicolor (Streptomyces coelicolor, UniProt P15474); assay: S. coelicolor DHQase enzyme inhibition in vitro; type: biochemical
Source text: (§1) The next step was to purchase the compounds highlighted by these protocols to test them in vitro against M. tuberculosis DHQase and S. coelicolor DHQase. With the modest budget assigned to this proof of concept (£5000), we could purchase 148 compounds (full details on this process can be found in electronic supplementary material, Materials and methods). Tables 1 and 2 show the performance of each virtual screening protocol against each target (all IC50 measurements are included in the electronic supplementary material). […]. […].
(§2) In order to assess the overall hit rate and potency of these inhibitors, we calculated their inhibition constant (Ki) as explained in electronic supplementary material, Materials and methods (see table 3 for a summary). This is necessary to have a more accurate comparison with hit rates in the literature and with the potency of previously known inhibitors. […]. a total of 40 inhibitors) being noticeably higher than that for M. tuberculosis DHQase (23.6%; 35 inhibitors). […]. This difference might be due to the fact that our protocols are primarily exploiting crystal structures for S. coelicolor DHQase. […].

[2] = molecular target: T2, type II dehydroquinase from Mycobacterium tuberculosis (Mycobacterium tuberculosis, UniProt P9WPX7); settings: search template RP4, known optimized inhibitor; reference not given, probably ref 33; read-out: Ki (Mtb; μM); cited from earlier work
[3] = molecular target: T1, type II dehydroquinase from Streptomyces coelicolor; settings: cited from earlier work
[4] = molecular target: T2, type II dehydroquinase from Mycobacterium tuberculosis; assay: M. tuberculosis DHQase enzyme inhibition in vitro; type: biochemical; settings: Ki calculated from measured IC50, read-out: Ki (Mtb; μM)
Source text: as §1, §2

[5] = molecular target: H. pylori DHQase; design: method as in PMID 16480265; settings: HTS hit; read-out: Ki against H. pylori DHQase; cited from earlier work

T2 sequence (P9WPX7 whole entry): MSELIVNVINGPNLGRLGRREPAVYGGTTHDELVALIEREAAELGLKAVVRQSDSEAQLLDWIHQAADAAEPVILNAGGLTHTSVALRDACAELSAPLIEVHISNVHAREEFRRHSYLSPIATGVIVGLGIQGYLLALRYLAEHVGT
T1 sequence (P15474 whole entry): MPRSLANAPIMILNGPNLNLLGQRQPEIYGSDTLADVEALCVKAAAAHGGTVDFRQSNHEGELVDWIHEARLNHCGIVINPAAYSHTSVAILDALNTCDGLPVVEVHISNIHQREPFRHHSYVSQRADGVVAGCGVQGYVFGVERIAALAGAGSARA

SMILES | Ki [1] | Ki [4] | further results
O=C(Cn1nc2ccccn2c1=O)N(Cc1cccs1)Cc1cccs1 [ZINC24469052] | 21 µM | – | –
O=C(O)[C@]1(O)C=C(c2cccc(Sc3ccccc3)c2)[C@@H](O)[C@H](O)C1 [RP4] | – | – | Ki [2]: 0.38 µM; Ki ([3]; read-out: Ki (Sc; μM), search template RP4, known optimized inhibitor): 0.07 µM
O=C(O)[C@H](Cc1ccccc1)N1C(=O)/C(=C/c2cccc3ccccc23)SC1=S [ZINC00978022] | 4 µM | – | –
CC[C@H](C)NC(=O)c1ccccc1NC(=O)Cc1ccccc1 [ZINC10025084] | 148 µM | 167 µM | –
O=c1c2ccccc2oc2ccc(S(=O)(=O)N=c3[nH]nn[nH]3)cc12 [GAJ] | – | – | Ki [5]: 20 µM
CC(C)N(C(=O)COC(=O)c1ccc(N)c([N+](=O)[O-])c1)C(C)C [ZINC05657290] | 201 µM | 192 µM | –
CCOC(=O)C1=C(CSc2nc3ccccc3[nH]2)NC(=O)N[C@H]1C [ZINC06024496] | 174 µM | 159 µM | –
COc1ccc(CC(=O)Nc2cc(C(F)(F)F)ccc2N(C)C)cc1F [ZINC18086350] | – | 166 µM | inhibition at 224 µM ([1]; read-out: inhibition of S. coelicolor DHQase): 45%
CC[C@H](C)NC(=O)c1ccccc1NC(=O)Cc1c(F)cccc1Cl [ZINC15608616] | 149 µM | 150 µM | –
O=C(O)[C@]1(O)C[C@H](CCCOc2ccccc2)[C@@H](O)[C@H](O)C1 [CA2] | – | – | Ki ([3]; read-out: measured Ki (2BT4 ligand)): 33 µM
